Assay results taken from patent publication US12060347B2 (BRISTOL-MYERS SQUIBB COMPANY, priority 2016, dated 2024).

Biological target: T1, human PAR4 (Homo sapiens, UniProt Q96RI0)
T1 construct: expressed in transfected cells; host or cells: HEK293 PAR4 Clone 1.2A (BMS Arctic ID 383940)
T1 sequence (Q96RI0 18-385): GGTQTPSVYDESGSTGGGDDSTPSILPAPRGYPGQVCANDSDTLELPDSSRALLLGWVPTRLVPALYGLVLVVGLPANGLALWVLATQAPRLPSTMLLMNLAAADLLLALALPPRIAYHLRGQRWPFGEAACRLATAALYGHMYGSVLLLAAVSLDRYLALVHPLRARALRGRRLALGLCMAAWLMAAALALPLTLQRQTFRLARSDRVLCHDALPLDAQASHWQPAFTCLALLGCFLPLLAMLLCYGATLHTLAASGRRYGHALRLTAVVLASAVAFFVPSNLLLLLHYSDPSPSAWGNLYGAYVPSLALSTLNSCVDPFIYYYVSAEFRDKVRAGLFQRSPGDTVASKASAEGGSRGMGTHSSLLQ
Assay: PAR4 FLIPR assay: antagonism of agonist-peptide-induced calcium mobilization in PAR4-expressing HEK293 cells
Format: cell-based
Details: H-Ala-Phe(4-F)-[…]NH2-induced intracellular calcium mobilization, 11-point curves

`COc1cnc2c(-c3nc4cc(F)c(OC[C@@H](C)OC(=O)Nc5cnc(CO)nc5)nc4s3)cc(C)cc2n1` [Example 768, (R)-1-((6-fluoro-2-(2-methoxy-7-methylquinoxalin-5-yl)thiazolo[5,4-b]pyridin-5-yl)oxy)propan-2-yl (2-(hydroxymethyl)pyrimidin-5-yl)carbamate] showed an IC50 of 10 nM.
`COc1cnc2c(-c3nc4cc(F)c(O[C@@H](C)[C@@H](C)OC(=O)Nc5cnc(C)nc5)nc4s3)cc(Cl)cc2c1` [Example 769, (2R,3S)-3-((2-(6-chloro-3-methoxyquinolin-8-yl)-6-fluorothiazolo[5,4-b]pyridin-5-yl)oxy)butan-2-yl (2-methylpyrimidin-5-yl)carbamate] gave an IC50 of 3.2 nM.
In the case of `COc1cnc2c(-c3nc4cc(F)c(OC[C@@H](C)OC(=O)Nc5cnc(C)nc5)nc4s3)cc(Cl)cc2c1` [Example 770, (R)-1-((2-(6-chloro-3-methoxyquinolin-8-yl)-6-fluorothiazolo[5,4-b]pyridin-5-yl)oxy)propan-2-yl (2-methylpyrimidin-5-yl)carbamate], the IC50 is reported as 1.9 nM.
For `COc1cnc2c(-c3nc4cc(F)c(O[C@@H](C)[C@@H](C)OC(=O)Nc5cnc(C)nc5)cc4s3)cc(F)cc2c1` [Example 772, (2R,3S)-3-((5-fluoro-2-(6-fluoro-3-methoxyquinolin-8-yl)benzo[d]thiazol-6-yl)oxy)butan-2-yl (2-methylpyrimidin-5-yl)carbamate], the IC50 was 1.5 nM.
For `COc1cnc2c(-c3nc4cc(F)c(O[C@@H](C)[C@@H](C)OC(=O)Nc5cnc(C)nc5)cc4s3)cc(CO)cc2c1` [Example 773], the IC50 was 11 nM.
In the case of `COc1cnc2c(-c3nc4cc(F)c(O[C@@H](C)[C@@H](C)OC(=O)Nc5cnc(OCCO)nc5)nc4s3)cc(Cl)cc2c1` [Example 774, (2R,3S)-3-((2-(6-chloro-3-methoxyquinolin-8-yl)-6-fluorothiazolo[5,4-b]pyridin-5-yl)oxy) butan-2-yl (2-(2-hydroxyethoxy)pyrimidin-5-yl)carbamate], the IC50 is reported as 1.2 nM.
`COc1cnc2c(-c3nc4cc(F)c(O[C@@H](C)[C@@H](C)OC(=O)Nc5cnc(OCCO)nc5)nc4s3)cc(C)cc2c1` [Example 775, (2R,3S)-3-((6-fluoro-2-(3-methoxy-6-methylquinolin-8-yl)thiazolo[5,4-b]pyridin-5-yl)oxy)butan-2-yl (2-(2-hydroxyethoxy)pyrimidin-5-yl)carbamate] was tested, and the IC50 was 0.8 nM.
`COc1cnc2c(-c3nc4cc(F)c(O[C@@H](C)[C@@H](C)OC(=O)Nc5cncc(F)c5)nc4s3)cc(Cl)cc2c1` [Example 776, (2R,3S)-3-((2-(6-chloro-3-methoxyquinolin-8-yl)-6-fluorothiazolo[5,4-b]pyridin-5-yl)oxy)butan-2-yl (5-fluoropyridin-3-yl)carbamate] showed an IC50 of 2.5 nM.
Molecule `COc1cnc2c(-c3nc4cc(F)c(O[C@@H](C)[C@@H](C)OC(=O)Nc5ccc6[nH]c(=O)oc6c5)nc4s3)cc(Cl)cc2c1` [Example 777, (2R,3S)-3-((2-(6-chloro-3-methoxyquinolin-8-yl)-6-fluorothiazolo[5,4-b]pyridin-5-yl)oxy) butan-2-yl (2-oxo-2,3-dihydrobenzo[d]oxazol-6-yl)carbamate] has an IC50 of 8.6 nM.
`COc1cnc2c(-c3nc4cc(F)c(O[C@@H](C)[C@@H](C)OC(=O)Nc5ccnc(OCCC(C)(C)O)c5)nc4s3)cc(Cl)cc2c1` [Example 778, (2R,3S)-3-((2-(6-chloro-3-methoxyquinolin-8-yl)-6-fluorothiazolo[5,4-b]pyridin-5-yl)oxy) butan-2-yl (2-(3-hydroxy-3-methylbutoxy)pyridin-4-yl)carbamate] gave an IC50 of 3.4 nM.
With `COc1cnc2c(-c3nc4cc(F)c(O[C@@H](C)[C@@H](C)OC(=O)Nc5ccc(OCCO)nc5)nc4s3)cc(Cl)cc2c1` [Example 779, (2R,3S)-3-((2-(6-chloro-3-methoxyquinolin-8-yl)-6-fluorothiazolo[5,4-b]pyridin-5-yl)oxy) butan-2-yl (6-(2-hydroxyethoxy)pyridin-3-yl)carbamate] the IC50 was 3.3 nM.
`COc1cnc2c(-c3nc4cc(F)c(O[C@@H](C)[C@@H](C)OC(=O)Nc5ccnc(OCCO)c5)nc4s3)cc(Cl)cc2c1` [Example 780, (2R,3S)-3-((2-(6-chloro-3-methoxyquinolin-8-yl)-6-fluorothiazolo[5,4-b]pyridin-5-yl)oxy) butan-2-yl (2-(2-hydroxyethoxy)pyridin-4-yl)carbamate] showed an IC50 of 5 nM.
Work on `COc1cnc2c(-c3nc4cc(F)c(O[C@@H](C)[C@@H](C)OC(=O)Nc5ccc(CCO)nc5)nc4s3)cc(Cl)cc2c1` [Example 781, (2R,3S)-3-((2-(6-chloro-3-methoxyquinolin-8-yl)-6-fluorothiazolo[5,4-b]pyridin-5-yl)oxy) butan-2-yl (6-(2-hydroxyethyl)pyridin-3-yl)carbamate] yielded an IC50 of 6 nM.
With `COc1cnc2c(-c3nc4cc(F)c(O[C@@H](C)[C@@H](C)OC(=O)Nc5cncc(F)c5)cc4s3)cc(Cl)cc2c1` [Example 782, (2R,3S)-3-((2-(6-chloro-3-methoxyquinolin-8-yl)-5-fluorobenzo[d]thiazol-6-yl)oxy)butan-2-yl (5-fluoropyridin-3-yl)carbamate] the IC50 was 2.7 nM.
Molecule `COc1cnc2c(-c3nc4cc(F)c(O[C@@H](C)[C@@H](C)OC(=O)Nc5ccc(C(F)(F)F)nc5)cc4s3)cc(Cl)cc2c1` [Example 783, (2R,3S)-3-((2-(6-chloro-3-methoxyquinolin-8-yl)-5-fluorobenzo[d]thiazol-6-yl)oxy)butan-2-yl (6-(trifluoromethyl)pyridin-3-yl)carbamate] has an IC50 of 4.2 nM.
Molecule `COc1cnc2c(-c3nc4cc(F)c(O[C@@H](C)[C@@H](C)OC(=O)Nc5ccc(OC)nc5)cc4s3)cc(Cl)cc2c1` [Example 784, (2R,3S)-3-((2-(6-chloro-3-methoxyquinolin-8-yl)-5-fluorobenzo[d]thiazol-6-yl)oxy)butan-2-yl (6-methoxypyridin-3-yl)carbamate] has an IC50 of 2.8 nM.
Work on `COc1cncc(NC(=O)O[C@H](C)[C@H](C)Oc2cc3sc(-c4cc(Cl)cc5cc(OC)cnc45)nc3cc2F)c1` [Example 785, (2R,3S)-3-((2-(6-chloro-3-methoxyquinolin-8-yl)-5-fluorobenzo[d]thiazol-6-yl)oxy)butan-2-yl (5-methoxypyridin-3-yl)carbamate] yielded an IC50 of 3.5 nM.
With `COc1cnc2c(-c3nc4cc(F)c(O[C@@H](C)[C@@H](C)OC(=O)Nc5cncc(C#N)c5)cc4s3)cc(Cl)cc2c1` [Example 786, (2R,3S)-3-((2-(6-chloro-3-methoxyquinolin-8-yl)-5-fluorobenzo[d]thiazol-6-yl)oxy)butan-2-yl (5-cyanopyridin-3-yl)carbamate] the IC50 was 2.2 nM.
`COc1cnc2c(-c3nc4cc(F)c(O[C@@H](C)[C@@H](C)OC(=O)Nc5cnc(C)c(C)c5)cc4s3)cc(Cl)cc2c1` [Example 787, (2R,3S)-3-((2-(6-chloro-3-methoxyquinolin-8-yl)-5-fluorobenzo[d]thiazol-6-yl)oxy)butan-2-yl (5,6-dimethylpyridin-3-yl)carbamate] showed an IC50 of 2.9 nM.
`COc1cnc2c(-c3nc4cc(F)c(O[C@@H](C)[C@@H](C)OC(=O)Nc5cccnc5)cc4s3)cc(Cl)cc2c1` [Example 788, (2R,3S)-3-((2-(6-chloro-3-methoxyquinolin-8-yl)-5-fluorobenzo[d]thiazol-6-yl)oxy)butan-2-yl pyridin-3-ylcarbamate] was tested, and the IC50 was 3.1 nM.
